Measured values as given in patent publication US6071884A, “Pharmaceutical compositions and therapeutic methods” (Kirin Beer Kabushiki Kaisha, priority 1992, dated 2000).

Assays:
blood platelets [1] = assay: Thrombocytopenia-inhibiting effect in X-ray-irradiated mice; type: in vivo, mouse (BDF1); conditions: 10 days after 5 Gy X-ray; 0.1 mg/kg i.v. within 2 h; mean ± SD; vehicle per series 10.3, 6.8, 6.7; non-treatment 68.2, 96.9, 73.0
Method: Pharmacological Test 5: Thromboclytopenia-Inhibiting Effect
The thrombocytopenia-inhibiting effect of each sample upon an X-ray-irradiated mouser which is one of models with a decreased number of blood platelets was examined.
An experiment was carried out by using 6 week old female BDF1 mice purchased from Japan SLC Co., Ltd., with 6 mice made one group.
5 Gy of X ray was irradiated to the entire body of the mice by a Hitachi X-ray irradiator CMBR-1520R). Within 2 hours after the irradiation, each sample was administered to the caudal vein of the mice at an amount of 0.1 mg/kg.
(§1) After 10 days, blood was collected from the fundus vein of the mice, and the number of blood platelets was measured by a sequential multi-channel hemocytometer E-2500/cs (Toa Iyo Denshi Kabushiki Kaisha). The number of blood platelets of the non-treated group, that of the medium-administered group, and that of the sample-administered group are shown in Table 5.

[2] = tested on: mononuclear cell fraction of human umbilical cord blood; assay: Proliferation-stimulating effect on mononuclear cell fraction of human umbilical cord blood (3H-TdR uptake); type: cell-based; conditions: 96 h, percentage of control, 4 days; for activity at 0.1 µg/mL: 10^-1 μg/ml; for activity at 0.01 µg/mL: 10^-2 μg/ml; for activity at 0.001 µg/mL: 10^-3 μg/ml
From the text: Pharmacological Test 3: Proliferation-Stimulating Effect on Mononuclear Cell Fraction of Human Umbilical Cord Blood
It is extremely difficult to obtain human marrow cells. In addition, human umbilical cord blood contains stem cells (Nakahata, T. & Ogwa, M., J. Clin. Inveet. 70, 1324-1328 (1982)), so that it can be a good source of hematopoietic stem/progenitor cell supply (H. E. Broxneyer et al, Proc. Natl. Acad. Sci. USA, 86, 3828-3832 (1989)). For these reasons, the effect on human was examined by using, instead of human marrow cells, human umbilical cord blood.
To human umbilical cord blood was added an equal amount of RPMI 1640. This was placed on a Lymphoprep and centrifugal. The mononuclear cell fraction (MNF) thus obtained was used in the following experiment.
(§2) The concentration of the MNF was adjusted to 1×10^6 cells/ml by using an RPMI 1640 added with 10% auto-blood plasma as a culture medium. 10 μl/well of a sample with a predetermined concentration and 100 μl/well of the above-prepared MNF were placed on a round-bottomed 96 well plate and incubated under the conditions of 37° C. and 5% CO2 for 4 days. Thereafter, 0.5 μCi/well of ^3 H-TdR was added. After 8 hour incubation, the cells were harvested, and the amount of the 3H-TdR taken in the nuclei was measured by a liquid scintillation counter.

[3] = Life-span-increasing effect on irradiation of a lethal dose of radiation; type: in vivo, mouse (BDF1); conditions: 10 mice/group, 9 Gy X-ray, 0.1 mg/kg i.v. days 0, 4, 8
Method: Pharmacological Test 4: Life-Span-Increasing Effect on Irradiation of a Lethal Dose of Radiation
An experiment was carried out by using 6 week old female BDF1 mice purchased from Japan SLC Co., Ltd., with 10 mice made one group.
The entire bodies of the entire body of the mice were irradiated with 9 Gy of X-rays by using a Hitachi X-ray irradiator (MBR-1520R), and the day on which the X-ray was irradiated was referred to as "day 0".

blood platelets [4] = assay: Blood-platelet-increasing effect upon normal mouse; type: in vivo, mouse (BDF1); conditions: normal mice; 6 days after 0.1 mg/kg i.v.; mean ± SD; vehicle per series 58.2, 63.0, 71.1
Method: Pharmacological Test 6: Blood-Platelet-Increasing Effect upon Mouse
An experiment was carried out by using 6 week old female BDF1 mice purchased from Japan SLC Co., Ltd., with 5 mice made one group.
as §1, with “Each sample was administered to the caudal vein of the mice at a dose of 0.1 mg/kg. After” for “After”, “6” for “10”, “vehicle-administered” for “non-treated group, that of the medium-administered”, “6.” for “5.”

[5] = tested on: marrow cells (mononuclear cell fraction); assay: Proliferation-stimulating effect on marrow cell of mouse (3H-TdR uptake); type: cell-based, mouse (BALB/c); conditions: percentage of control, 72 h; for activity at 1 µg/mL: 10^0 μg/ml; for activity at 0.1 µg/mL: 10^-1 μg/ml; for activity at 0.01 µg/mL: 10^-2 μg/ml; for activity at 0.001 µg/mL: 10^-3 μg/ml
Method: Pharmacological Test 1: Proliferation-Stimulating Effect on Marrow Cell of Mouse
Marrow cells were prepared from the thigh bone of a 7 week old female BALB/c mouse purchased from Japan SLC Co., Ltd., and a mononuclear cell fraction (MNF) obtained by fractionation using a lympholyte-M (Cedar Lane, Ontario, Canada) was used in the following experiment.
as §2, with “to 1.5×10^6” for “to 1×10^6”, “using 10% FCS” for “using an”, “1640 (Nissui Pharmaceutical Co., Ltd., Tokyo, Japan)” for “1640 added with 10% auto-blood plasma”, “well plate,” for “well plate”, “for 72 hours.” for “for 4 days.”, “^3 H-thymidine (^3 H-TDR)” for “^3 H-TdR”

[6] = day 10, controls per series 10, 10, 10, 10, 10, 8
[7] = day 15, controls per series 8, 9, 5, 5, 7, 1
[8] = day 20, controls per series 4, 5, 1, 2, 3, 0
[9] = day 25, controls per series 3, 3, 0, 0, 2, 0
[10] = day 30, controls per series 1, 1, 0, 0, 0, 0

## CCCCCCCCCCCCCCCCCCCCCC[C@@H](O)C(=O)N[C@@H](CO[C@H]1O[C@H](CO)[C@H](O)[C@H](O)[C@H]1O)[C@H](O)[C@H](O)CCCCCCCCCCC [Compound 23, (2S,3S,4R)-1-(α-D-galactopyranosyloxy)-2-[(R)-2-hydroxytetracosanoylamino]-3,4-pentadecanediol]
Blood platelets [1]
  Number of Blood Platelets: 21.0 ± 5.9 × 10^4 /μl
[2]
  activity at 0.1 µg/mL: 402%
  activity at 0.01 µg/mL: 344%
  activity at 0.001 µg/mL: 197%
[3]; [6]
  Number of Surviving Mice: 10 mice
[3]; [7]
  Number of Surviving Mice: 10 mice
[3]; [8]
  Number of Surviving Mice: 9 mice
[3]; [9]
  Number of Surviving Mice: 9 mice
[3]; [10]
  Number of Surviving Mice: 9 mice
[3]; day 35, all controls 0
  Number of Surviving Mice: 9 mice
[3]; day 40, all controls 0
  Number of Surviving Mice: 9 mice
Blood platelets [4]
  Number of Blood Platelets: 108.7 ± 14.8 × 10^4 /μl
[5]
  activity at 1 µg/mL: 761%
  activity at 0.1 µg/mL: 312%
  activity at 0.01 µg/mL: 89%
  activity at 0.001 µg/mL: 81%

## CCCCCCCCCCCCCCCCCCCCCCCCCC(=O)N[C@@H](CO[C@H]1O[C@H](CO)[C@H](O)[C@H](O)[C@H]1O)[C@H](O)[C@H](O)CCCCCCCCCCCCC [Compound 20, (2S,3S,4R)-1-(α-D-galactopyranosyloxy)-2-hexacosanoylamino-3,4-heptadecanediol]
Blood platelets [1]
  Number of Blood Platelets: 19.8 ± 7.3 × 10^4 /μl
[2]
  activity at 0.1 µg/mL: 692%
  activity at 0.01 µg/mL: 474%
  activity at 0.001 µg/mL: 507%
[3]; [6]
  Number of Surviving Mice: 10 mice
[3]; [7]
  Number of Surviving Mice: 8 mice
[3]; [8]
  Number of Surviving Mice: 7 mice
[3]; [9]
  Number of Surviving Mice: 7 mice
[3]; [10]
  Number of Surviving Mice: 6 mice
[3]; day 35, all controls 0
  Number of Surviving Mice: 6 mice
[3]; day 40, all controls 0
  Number of Surviving Mice: 6 mice
Blood platelets [4]
  Number of Blood Platelets: 110.9 ± 10.6 × 10^4 /μl
[5]
  activity at 1 µg/mL: 982%
  activity at 0.1 µg/mL: 466%
  activity at 0.01 µg/mL: 201%
  activity at 0.001 µg/mL: 67%

## CCCCCCCCCCCCCCCCCCCCCCCC(=O)N[C@@H](CO[C@H]1O[C@H](CO)[C@H](O)[C@H](O)[C@H]1O)[C@H](O)[C@H](O)CCCCCCCCCCC [Compound 18, (2S,3S,4R)-1-(α-D-galactopyranosyloxy)-2-tetracosanoylamino-3,4-pentadecanediol]
Blood platelets [1]
  Number of Blood Platelets: 24.3 ± 8.6 × 10^4 /μl
[2]
  activity at 0.1 µg/mL: 298%
  activity at 0.01 µg/mL: 177%
  activity at 0.001 µg/mL: 135%
[3]; [6]
  Number of Surviving Mice: 10 mice
[3]; [7]
  Number of Surviving Mice: 10 mice
[3]; [8]
  Number of Surviving Mice: 8 mice
[3]; [9]
  Number of Surviving Mice: 7 mice
[3]; [10]
  Number of Surviving Mice: 7 mice
[3]; day 35, all controls 0
  Number of Surviving Mice: 7 mice
[3]; day 40, all controls 0
  Number of Surviving Mice: 7 mice
Blood platelets [4]
  Number of Blood Platelets: 111.7 ± 5.4 × 10^4 /μl
[5]
  activity at 0.1 µg/mL: 472%
  activity at 0.01 µg/mL: 124%
  activity at 0.001 µg/mL: 129%

## CCCCCCCCCCCCCCCCCCCCCCCCCCCC(=O)N[C@@H](CO[C@H]1O[C@H](CO)[C@H](O)[C@H](O)[C@H]1O)[C@H](O)[C@H](O)CCCCCCCCCCCCC [Compound 34, (2S,3S,4R)-1-(α-D-galactopyranosyloxy)-2-octacosanoylamino-3,4-heptadecanediol]
Blood platelets [1]
  Number of Blood Platelets: 24.4 ± 5.6 × 10^4 /μl
[2]
  activity at 0.1 µg/mL: 467%
  activity at 0.01 µg/mL: 258%
  activity at 0.001 µg/mL: 291%
[3]; [6]
  Number of Surviving Mice: 10 mice
[3]; [7]
  Number of Surviving Mice: 10 mice
[3]; [8]
  Number of Surviving Mice: 10 mice
[3]; [9]
  Number of Surviving Mice: 9 mice
[3]; [10]
  Number of Surviving Mice: 9 mice
[3]; day 35, all controls 0
  Number of Surviving Mice: 9 mice
[3]; day 40, all controls 0
  Number of Surviving Mice: 9 mice
Blood platelets [4]
  Number of Blood Platelets: 110.1 ± 9.0 × 10^4 /μl
[5]
  activity at 0.1 µg/mL: 272%
  activity at 0.01 µg/mL: 183%
  activity at 0.001 µg/mL: 150%

## CCCCCCCCCCCCCCCCCCCCCC(=O)N[C@@H](CO[C@H]1O[C@H](CO)[C@H](O)[C@H](O)[C@H]1O)[C@H](O)CCCCCCCCCCCCCCC [Compound 2, (2S,3R)-2-docosanoylamino-1-(α-D-galactopyranosyloxy)-3-octadecanol]
Blood platelets [1]
  Number of Blood Platelets: 21.5 ± 5.4 × 10^4 /μl
[3]; [6]
  Number of Surviving Mice: 10 mice
[3]; [7]
  Number of Surviving Mice: 10 mice
[3]; [8]
  Number of Surviving Mice: 9 mice
[3]; [9]
  Number of Surviving Mice: 9 mice
[3]; [10]
  Number of Surviving Mice: 9 mice
[3]; day 35, all controls 0
  Number of Surviving Mice: 9 mice
[3]; day 40, all controls 0
  Number of Surviving Mice: 8 mice
Blood platelets [4]
  Number of Blood Platelets: 96.3 ± 7.3 × 10^4 /μl
[5]
  activity at 1 µg/mL: 915%
  activity at 0.1 µg/mL: 295%
  activity at 0.01 µg/mL: 92%
  activity at 0.001 µg/mL: 123%

## CCCCCCCCCCCCC/C=C/[C@@H](O)[C@H](CO[C@H]1O[C@H](CO)[C@H](O)[C@H](O)[C@H]1O)NC(=O)CCCCCCCCCCCCC [Compound 32, (2S,3R,4E)-1-(α-D-galactopyranosyloxy)-2-tetradecanoylamino-4-octadecen-3-ol]
Blood platelets [1]
  Number of Blood Platelets: 16.4 ± 3.2 × 10^4 /μl
[3]; [6]
  Number of Surviving Mice: 10 mice
[3]; [7]
  Number of Surviving Mice: 9 mice
[3]; [8]
  Number of Surviving Mice: 4 mice
[3]; [9]
  Number of Surviving Mice: 3 mice
[3]; [10]
  Number of Surviving Mice: 3 mice
[3]; day 35, all controls 0
  Number of Surviving Mice: 3 mice
[3]; day 40, all controls 0
  Number of Surviving Mice: 3 mice
Blood platelets [4]
  Number of Blood Platelets: 88.3 ± 4.2 × 10^4 /μl
[5]
  activity at 1 µg/mL: 871%
  activity at 0.1 µg/mL: 405%
  activity at 0.01 µg/mL: 151%
  activity at 0.001 µg/mL: 115%

## CCCCCCCCCCCCCCC[C@@H](O)[C@H](CO[C@H]1O[C@H](CO)[C@H](O)[C@H](O)[C@H]1O)NC(=O)CCCCCCCCC [Compound 6, (2S,3R)-2-decanoylamino-1-(α-D-galactopyranosyloxy)-3-octadecanol]
Blood platelets [1]
  Number of Blood Platelets: 15.4 ± 3.2 × 10^4 /μl
[3]; [6]
  Number of Surviving Mice: 9 mice
[3]; [7]
  Number of Surviving Mice: 6 mice
[3]; [8]
  Number of Surviving Mice: 2 mice
[3]; [9]
  Number of Surviving Mice: 2 mice
[3]; [10]
  Number of Surviving Mice: 2 mice
[3]; day 35, all controls 0
  Number of Surviving Mice: 2 mice
[3]; day 40, all controls 0
  Number of Surviving Mice: 2 mice
Blood platelets [4]
  Number of Blood Platelets: 93.0 ± 12.1 × 10^4 /μl
[5]
  activity at 0.1 µg/mL: 391%
  activity at 0.01 µg/mL: 196%
  activity at 0.001 µg/mL: 71%
